1 molecule from ChEMBL document CHEMBL1150574, “3-Acetoxyspathulenol, a new aromadendrane-type natural product from the soft Coral Parerythropodium fulvum” (J Nat Prod, 2001) can be followed below.

The structures appear in SMILES notation. Activity calls are given as the source filed them. The calls are words filed in the database; no cut-off is given here.

The test system of data set [1] is Aspergillus pseudoglaucus. The experiment in a line: Antimicrobial activity against Eurotium repens. The format is functional, organism-based.
Another data set relates to Caenorhabditis elegans. The experiment in a line: Nematicide against Caenorhabditis elegans. It is filed as functional, organism-based.
In a further data set the test system is Microbotryum violaceum. Description: Antimicrobial activity against Microbotryum violaceum. It is filed as functional, organism-based.
The test system of data set [2] is Human immunodeficiency virus. The experiment in a line: Inhibition of HIV reverse transcriptase.
A further data set concerns Artemia. The experiment in a line: Toxicity against brine shrimp. It is filed as organism-based. The note with it: in vivo.
The subject of the next data set is Mycotypha microspora. Description: Antimicrobial activity against Mycotypha microspora. It is filed as functional, organism-based.
The test system of another data set is Priestia megaterium. The experiment in a line: Antimicrobial activity against Bacillus megaterium. The format is functional, organism-based.
Data set [3] has as its target Tyrosine-protein kinase Lck (Homo sapiens) (UniProt P06239). Description: Inhibition of p56 LCK.
The subject of the next data set is Fusarium oxysporum. Description: Antimicrobial activity against Fusarium oxysporum. The format is functional, organism-based.
A further data set relates to Escherichia coli. The experiment in a line: Antimicrobial activity against Escherichia coli. It is filed as functional, organism-based.
The subject of another data set is [Chlorella] fusca. Description: Antimicrobial activity against Chlorella fusca. As to conditions: Scenedesmus fuscus. The format is functional, organism-based.

Tyrosine-protein kinase Lck (Homo sapiens), sequence (P06239 2-509 limits assumed): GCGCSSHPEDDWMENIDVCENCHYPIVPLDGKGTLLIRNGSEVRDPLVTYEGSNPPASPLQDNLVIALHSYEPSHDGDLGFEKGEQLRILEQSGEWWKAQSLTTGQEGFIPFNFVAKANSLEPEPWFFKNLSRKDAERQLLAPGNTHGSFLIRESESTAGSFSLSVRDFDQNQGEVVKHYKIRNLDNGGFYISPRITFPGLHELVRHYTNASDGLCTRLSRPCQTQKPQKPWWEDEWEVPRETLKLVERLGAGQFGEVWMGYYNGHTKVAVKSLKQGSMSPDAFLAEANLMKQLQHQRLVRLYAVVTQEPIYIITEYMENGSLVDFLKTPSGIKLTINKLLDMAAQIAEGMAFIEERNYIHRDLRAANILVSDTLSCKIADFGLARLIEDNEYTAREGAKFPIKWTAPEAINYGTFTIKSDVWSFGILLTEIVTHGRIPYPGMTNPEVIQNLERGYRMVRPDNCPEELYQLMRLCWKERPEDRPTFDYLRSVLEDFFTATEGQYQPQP

As to `C=C1CC[C@@H]2[C@H]([C@H]3[C@H]1C[C@@H](OC(C)=O)[C@@]3(C)O)C2(C)C`, the outcome (in [1]; in the data set on Caenorhabditis elegans; in the data set on Microbotryum violaceum; in data set [2]; with Mycotypha microspora; with Priestia megaterium) was inactive. Also, the result (in data set [3]; in the data set with Fusarium oxysporum; with Escherichia coli; in data set [Chlorella] fusca) was inactive. In the data set on Artemia, the Activity entry is “Non-toxic”.
